Test in all cases: NCI-60 cell line screen, 48 h
The subject of test [1] is 786-0 renal.
Test [2] has as its system HCT-15 colon.
Test [3] concerns HL-60(TB) leukemia.
The test system of test [4] is MALME-3M melanoma.
In test [5] the test system is NCI-H522 lung.
Test [6] concerns OVCAR-8 ovarian.
The test system of test [7] is RPMI-8226 leukemia.
The subject of test [8] is SF-268 CNS.
Test [9] deals with SF-295 CNS.
In test [10] the test system is SF-539 CNS.
The subject of test [11] is TK-10 renal.

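Grown in 96-well plates, cells were treated for 48 hours with each compound at five concentrations. Insufficient inhibition: endpoint recorded as highest concentration tested. TGI: total growth inhibition.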 Some results are limits rather than exact numbers.

`Cc1ccc(O)c(C(c2cccc(C(c3cc(C)ccc3O)c3cc(C)ccc3O)c2)c2cc(C)ccc2O)c1`: the TGI in [1] was 3.18 µM; in test [2], 3.31 µM; in test [3], 5.31 µM; in [4] it was 3.77 µM; in test [5] it was 3.03 µM; in test [6] it was 3.87 µM. In addition, the TGI in test [7] came to 3.31 µM; in test [8], 3.33 µM; in test [9] it was 3.91 µM; in test [10] it was 3.35 µM; in test [11], 3.25 µM.

As to `O=C(Nc1ccc(C(F)(F)F)cc1)NC(F)(F)F`, the TGI in test [1], in [2], in test [3], in [6], in test [7] and in test [8] was greater than 100 µM throughout. The TGI in [10] and in test [11] was greater than 100 µM throughout.

`COc1ccc(CNc2cnc3cc(N)ccc3n2)cc1`: the TGI in [1], in [2], in test [3], in test [4], in test [5] and in test [6] was greater than 100 µM throughout. The TGI in test [7], in test [8], in [9], in [10] and in test [11] was greater than 100 µM each time.

As for `C=C(C)C12CC3CC(/C(=N/O)C(C1)/C3=N\O)[C@@]2(C)O` (stereo partly drawn), the TGI in [1], in test [2], in [3], in [4], in test [5] and in test [6] was greater than 100 µM throughout. Also, the TGI in test [7], in test [8], in test [9], in test [10] and in [11] was greater than 100 µM in each case.

Take `COC(=O)[C@]12CC3C=CC1N(C3)C(CBr)c1c2n(S(=O)(=O)c2ccccc2)c2ccccc12` (stereo partly drawn): the TGI in test [1], in test [2], in test [3], in test [4], in test [5] and in [6] was greater than 100 µM throughout. The values for the TGI in test [7], in test [9] and in test [11] were 23.5 µM, greater than 100 µM and greater than 100 µM, respectively.

On to `OC12c3ccccc3C1CCCCC2N1CCCC1` (stereo not drawn), for which the TGI in test [1], in test [2], in test [3], in test [4], in test [5] and in test [6] was greater than 100 µM throughout. Moreover, the TGI in test [7], in test [8], in [9] and in test [11] was greater than 100 µM each time.

`CSC1=N/C(=C\c2ccc(Cl)cc2)C(=O)N1CN1CCCCC1`: the TGI in [1] was greater than 100 µM; in test [2], greater than 100 µM; in [4], 91.7 µM; in test [5] it was greater than 100 µM; in test [6] it was greater than 100 µM; in test [7] it was greater than 100 µM. Besides, the TGI in [8], in test [9] and in [11] was greater than 100 µM each time.

On to `CC(=O)NC1C(OC(C)C(=O)NC(C)C(=O)NC(CCC(=O)NCCCCCNc2ccc([N+](=O)[O-])c3[nH]c4ccccc4c(=O)c23)C(N)=O)C(O)C(CO)OC1(C)OCc1ccccc1` (stereo not drawn), for which the TGI in [1] is greater than 100 µM; in test [2], greater than 100 µM; in [4], greater than 100 µM; in [5] it was greater than 100 µM; in [6], greater than 100 µM; in [7], 70.1 µM. For the same compound, the TGI was greater than 100 µM in test [8], greater than 100 µM in [9], greater than 100 µM in [10] and 82.1 µM in test [11].

Turning to `FC1(F)[Se]C2C3CCC(C3)C2C1(F)F` (stereo not drawn), the TGI in test [1], in [2], in [4], in test [5], in test [6] and in [7] was greater than 100 µM each time. The TGI in test [8], in test [9], in [10] and in [11] was greater than 100 µM in each case.

Consider `CN=C1Nc2ccccc2C(=O)N2CSCC12` (stereo not drawn), for which the TGI in [1], in test [2], in [4], in test [5], in test [6] and in test [7] was greater than 100 µM throughout. The TGI in [8], in [9] and in test [11] was greater than 100 µM each time.

For `C=CC(=O)Nc1ccc(NC(=O)C=C)c2c1C(=O)c1ccccc1C2=O`, the TGI was 84.6 µM in test [1]; greater than 100 µM in test [2]; 24.7 µM in test [3]; greater than 100 µM in [4]; 34.6 µM in [5]; greater than 100 µM in test [6]. Further, the TGI is 21.2 µM in test [7], 49.8 µM in [9], 70.9 µM in test [10] and 62.5 µM in [11].

Take `N#CC12C(=O)NC(=O)C1(C#N)C1C=CC2CC1` (stereo not drawn): the TGI in test [1], in [2], in test [3], in test [4], in [5] and in test [6] was greater than 100 µM in each case. Besides, the TGI in test [7], in test [8], in [9], in test [10] and in test [11] was greater than 100 µM each time.

Consider `CC(=O)Nc1ccc2c3c(cc(O)c2c1)N(C(=O)CCCC(=O)N1CC(CCl)c2c1cc(O)c1cc(NC(C)=O)ccc21)CC3CCl` (stereo not drawn), for which the TGI was 0.195 µM in test [1]; 11.5 µM in [2]; 0.0153 µM in test [3]; 0.0318 µM in test [4]; 0.0212 µM in [5]; greater than 100 µM in [6]. Moreover, the TGI in test [7] was found to be 0.0182 µM; in [10] it was 0.0964 µM; in [11], 0.057 µM.

For the compound `COc1cccc(/C=N/n2c(Cc3ccccc3)n[nH]c2=O)c1`, the TGI in test [1], in test [2], in test [4], in test [5], in [6] and in test [7] was greater than 100 µM in each case. Moreover, the TGI in [8], in [9], in test [10] and in test [11] was greater than 100 µM throughout.

Source of the values: PubChem BioAssay (NCI).
